In ChEMBL document CHEMBL3399921, “Novel 2-(2-phenalkyl)-1H-benzo[d]imidazoles as antitubercular agents. Synthesis, biological evaluation and structure-activity relationship” (Bioorg Med Chem, 2015) one finds MIC data, which are given here for 3 molecules.

In this test the test system is Mycobacterium tuberculosis variant bovis. Kind of test: Tuberculostatic activity against Mycobacterium bovis by two-fold classical test-tube method. In kind it is functional.

The structures appear in SMILES notation. Converted amounts (≈) assume the structure as drawn.

`Cc1cc2nc(CCc3ccccc3)[nH]c2cc1C`: it took 6.3 µM (≈ 1.58 µg/mL) to inhibit growth (MIC). For the molecule `Cc1cc2nc(CCc3cc(Cl)cc(Cl)c3)[nH]c2cc1C`, the lowest concentration to inhibit growth (MIC) was 19 µM (≈ 6.07 µg/mL). This MIC lies about 3-fold higher than the previous one. To `Nc1c(NC(=O)CCc2cc(Cl)cc(Cl)c2)cc(Cl)cc1[N+](=O)[O-]` belongs 65 µM (≈ 25.3 µg/mL).

The term MIC denotes the least concentration at which growth counts as inhibited. A low value points to greater potency.
